Data from the OPERA property sets (Mansouri et al. 2018).
Where a SMILES comes first, the peptide text is derived from it.

Compared with Cc1cccc(C)c1NN=C(C#N)C#N, CC(C)(C)C(=O)C(C#N)=NNc1cc(C(F)(F)F)ccc1Cl is higher in logP: 2.8 for the first, 5.31 for the second.

First: O=Cc1ccc(O)c2ncccc12
Second: OCc1ccc(O)c2ncccc12
The logP of the first is higher: 1.63 for the first, 1 for the second.

Compared with CC(C)NC(=O)C1(O)C(C)CC2C3CCC4=CC(=O)C=CC4(C)C3(F)C(O)CC21C (configuration not stated), CC(C)CCNC(=O)C1(O)C(C)CC2C3CCC4=CC(=O)C=CC4(C)C3(F)C(O)CC21C (configuration not stated) is higher in logP: 2.43 for the first, 3.74 for the second.

First: COc1cccc(NC(=O)OCCN2CCOCC2)c1
Second: CCCCCCCOc1ccc(NC(=O)OCCN2CCOCC2)cc1
The logP of the first is lower: 2.19 for the first, 4.96 for the second.

Going from O=C(NN=Cc1ccco1)Nc1ccccc1 to Cc1ccc(SCCNc2ccccc2C(N)=O)cc1, the logP rises from 2.52 to 3.15.

First: CN(C)C=Nc1ccn(C2CC(O)C(CO)O2)c(=O)n1 (configuration not stated)
Second: CC(C)N(C=Nc1ccn(C2OC(CO)C(O)C2O)c(=O)n1)C(C)C (configuration not stated)
The logP of the first is lower: -1.54 for the first, 0.01 for the second.

CC12CCC(=O)C=C1CCC1C2CCC2(C)C1CCC21CCC(=O)O1 (configuration not stated) and CC1CC2C3CCC4=CC(=O)C=CC4(C)C3(F)C(O)CC2(C)C1(O)C(=O)NC(CO)c1ccccc1 (configuration not stated) are within 0.2 log units of each other in logP: 2.98 for the first, 2.89 for the second.

First: C#CCCOCn1ccnc1C=NO
Second: CS(=O)(=O)CCOCn1ccnc1C=NO
The logP of the first is higher: 0.67 for the first, -0.84 for the second.

Going from N#CC(CCc1ccc(Cl)cc1)(Cn1cncn1)c1ccccc1 (configuration not stated) to c1ccc(-c2ccc(C(c3ccccc3)n3ccnc3)cc2)cc1 (configuration not stated), the logP rises from 3.23 to 4.77.

First: COCCn1cnc2c(=O)[nH]c(Nc3ccccc3)nc21
Second: Cn1cc(-c2ccccc2)c(=O)c(-c2cccc(C(F)(F)F)c2)c1
The logP of the first is lower: 1.2 for the first, 3.16 for the second.

First: CC(=O)N[C@@H](Cc1c[nH]c2ccccc12)C(=O)N[C@@H](C)C(=O)N[C@@H](C)C(N)=O (Ac-Trp-Ala-Ala-NH2)
Second: CC(=O)NC(CC(C)C)C(=O)NC(CCCCN)C(=O)NC(Cc1ccccc1)C(N)=O (stereo not drawn) (Ac-Leu-Lys-Phe-NH2; configuration not given here)
The logP of the first is lower: -0.38 for the first, 1.14 for the second.

Going from COc1cc(C)c2c(c1OC)-c1ccc(OC)c(=O)cc1C(NC(=O)c1ccc([N+](=O)[O-])cc1)CC2 (configuration not stated) to COc1cc(C)c2c(c1OC)-c1ccc(NCc3ccccc3)c(=O)cc1C(NC(C)=O)CC2 (configuration not stated), the logP rises from 2.96 to 3.58.

First: C#CCOc1c(Cl)cc(NC=NOc2ccc(C)cc2)cc1Cl
Second: C#CCOc1c(Cl)cc(NC=NOC)cc1Cl
The logP of the first is higher: 4.8 for the first, 3.3 for the second.

Going from CN(C)N=Nc1nccs1 to Cc1ncc([N+](=O)[O-])n1CCOC(=O)N(C)C, the logP falls from 1.27 to 0.47.

First: c1nnn(C23CC4CC(CC(C4)C2)C3)n1
Second: OCC1CC(F)C(n2cnc3c(I)ncnc32)O1 (configuration not stated)
The logP of the first is higher: 2.95 for the first, 0.63 for the second.

Compared with CC(C)(C)NC(=O)C1CN(S(=O)(=O)c2cccc3cccnc23)CCN1CC(O)CC(Cc1ccccc1)C(=O)NC1c2ccccc2CC1O (configuration not stated), Cc1cccc(C)c1NC(=O)CN1CCN(CCCC(c2ccc(F)cc2)c2ccc(F)cc2)CC1 is higher in logP: 3.7 for the first, 5.6 for the second.

Cn1c([N+](=O)[O-])cnc1COc1ccc(Cl)cc1 and OCCOc1ccc(Cl)cc1 are within 0.2 log units of each other in logP: 1.8 for the first, 1.99 for the second.

First: CCOc1ccc(C2(C(=O)OC)CC(F)(F)C2(F)F)cc1 (configuration not stated)
Second: CCC(=O)C1(c2cccc(OC(=O)OC)c2)CCN(C)CC1
The logP of the first is higher: 4.06 for the first, 0.75 for the second.

Going from COCC(O)Cn1c(C)cnc1[N+](=O)[O-] (configuration not stated) to O=[N+]([O-])c1nccn1CCC(O)CO (configuration not stated), the logP falls from 0.03 to -0.9.

NC(=O)c1cc2ccccc2o1 and CNC(=NC#N)Nc1cccc(-c2csc(N=C(N)N)n2)c1 are within 0.2 log units of each other in logP: 1.54 for the first, 1.6 for the second.

Going from Clc1cc(Cl)c(-c2ccc(Cl)c(Cl)c2Cl)c(Cl)c1 to Clc1cc2oc3c(Cl)cc(Cl)c(Cl)c3c2cc1Cl, the logP falls from 7.25 to 6.26.

First: C=CCC1CN(C)CCC1(OC(=O)CC)c1ccccc1 (configuration not stated)
Second: CCCCCOc1ccccc1NC(=O)OCCN1CCCCC1
The logP of the first is lower: 2.97 for the first, 4.97 for the second.

Going from CCC1COC(Cn2cncn2)(c2ccc(NC(=O)C(F)(F)F)cc2)O1 (configuration not stated) to Cc1ccc(C2(Cn3cncn3)OCCO2)cc1, the logP rises from 1.08 to 1.55.

Going from COCCCNC(=S)C(F)(F)Cn1cnc([N+](=O)[O-])n1 to O=[N+]([O-])c1ncn[nH]1, the logP falls from 1.1 to -0.33.

First: CC1=C(/C=C/C(C)=C/C=C/C(C)=C/CO)C(C)(C)CCC1
Second: Cc1ncc(CO)c(COCCC(C)C)c1O
The logP of the first is higher: 5.68 for the first, 0.83 for the second.

Compared with O=C(O)c1cc(Oc2cc(C(F)(F)F)ccc2Cl)ccc1[N+](=O)[O-], CCC(=O)C(CS(=O)(=O)c1ccc(C)cc1)c1ccc(Cl)cc1 (configuration not stated) is lower in logP: 3.7 for the first, 3.43 for the second.

Compared with N#CN=C1NCCN1Cc1cccnc1, NC(COCc1cccnc1)C(=O)O (configuration not stated) is lower in logP: 0.77 for the first, -2.44 for the second.

First: Cc1ccc(Cl)c(Cl)c1
Second: O=[N+]([O-])c1c(Cl)c(Cl)cc(Cl)c1Cl
The logP of the first is lower: 3.95 for the first, 4.38 for the second.

Cc1nc([N+](=O)[O-])c(Cl)n1C and Cc1n[nH]c(C(=O)NC2CC2)c1[N+](=O)[O-] are within 0.2 log units of each other in logP: 0.34 for the first, 0.25 for the second.

Going from CN1CCC(=C2c3ccccc3CCc3cccnc32)CC1 to CC(=O)c1ccc2c(c1)OCCOCCOCCOCCOCCO2, the logP falls from 3.59 to -0.05.

Going from C[Si](C)(C)C to Clc1ccc(Sc2nc(C(Cl)(Cl)Cl)nc(C(Cl)(Cl)Cl)n2)cc1, the logP rises from 3.24 to 6.67.
